Test results taken from patent publication US12642862B2, “Anti-CD79B antibody-drug conjugate, and preparation method therefor and pharmaceutical use thereof” (TUOJIE BIOTECH (SHANGHAI) CO., LTD., priority 2020, dated 2026).
pEC50: −log10 of the molar value. “And” between values parts separate entries of the source, which are not always exact repeats. Equal entries are not always repeated. Where two headings read alike, the source gives them in different places.

Columns and labels:
DoHH2 = type: cell-based, human; conditions: DoHH2 (CD79B high-expression), 72 h, MTT
Experimental: (§1) This example was performed to evaluate the effect of different ADCs on the proliferation of DoHH2, WSU-DLCL2 and Raji cells cultured in vitro.
(§2) A certain number of cells in logarithmic growth phase were seeded into a 96-well culture plate, and drugs at different concentrations were added to the culture plate for reaction for 72 h. After the reaction was completed, an MTT working solution was added for reaction for 4 h, then blue-purple crystalline formazan was dissolved with a triplex solution.
(§3) From the inhibition rate at each concentration, the half maximal inhibitory concentration IC50 was calculated using PrismGraph 8.

[1] = test system: human diffuse large B-cell lymphoma WSU-DLCL2-induced nude mouse subcutaneous xenograft tumor; type: in vivo, nude mice (BALB/c-nu); conditions: for Mean tumor volume (mm^3 ± SEM) D0 / Mean tumor volume (mm^3 ± SEM) D21 / Tumor growth inhibition (%) D21 / T/C (%) D21 / Partial regression: IV; for Mean tumor volume (mm^3 ± SEM) D0: baseline at grouping; for Mean tumor volume (mm^3 ± SEM) D21 / Tumor growth inhibition (%) D21 / T/C (%) D21 / Partial regression: single dose D0; for T/C (%) D21: control IgG1; for Partial regression: tumors (of 6) with volume on D21 less than on D0
Experimental: This example was performed to evaluate and compare the efficacy of ADC drugs on nude mouse subcutaneous xenograft tumor.
Cells and mice: human diffuse large B-cell lymphoma WSU-DLCL2 cells were purchased from American Type Culture Collection. WSU-DLCL2 cells were cultured in a 10 cm petri dish with an RPMI 1640 culture medium (Gibco) containing 10% fetal bovine serum, penicillin and streptomycin and incubated in an incubator at 37° C. with 5% CO2. Subculturing was performed 2-3 times a week, and cells were collected, counted and seeded when they were in exponential growth phase.
Nude mice, BALB/c-nu, 35 days of age, female, were purchased from Beijing Huafukang Biotechnology Co., Ltd, with production license number of SCXK (Beijing) 2019-0008, and animal certification number of 1103222011004014. Housing environment: SPF grade.
The experimental index is to study the effect of the drug on the tumor growth, and the specific index is T/C % or tumor growth inhibition TGI (%).
Tumor diameters were measured twice a week with a vernier caliper and tumor volume (V) was calculated according to the following formula: V=½×a×b^2, where a and b represent length and width, respectively.
T/C (%)=(T−T0)/(C−C0)×100, where T and C represent the tumor volume of animals at the end of the experiment in the treatment group and control group, respectively; T0 and C0 represent the tumor volume of animals at the beginning of the experiment in the treatment group and control group, respectively; where T is the tumor volume of the ADC administered and C is the tumor volume of IgG1 administered as a control group.
At the end of the experiment, at the experiment endpoint, or when the mean tumor volume in the solvent group reached 1500 mm^3, the animals were sacrificed by CO2 anesthesia and dissected to give the tumors. The tumors were photographed. Unless otherwise indicated, comparison between tumor volumes of the two groups was made by two-way ANOVA test, with P<0.05 defined as statistically significant difference.

human CD79B = molecular target: T1, human CD79B (Homo sapiens, UniProt P40259); experiment: Biacore affinity assay of CD79B antibodies and ADCs; parameters: His; purchased Sino Biological 29750-H08H; conditions: binding force to human CD79B protein
T1 sequence (P40259 29-159 limits assumed): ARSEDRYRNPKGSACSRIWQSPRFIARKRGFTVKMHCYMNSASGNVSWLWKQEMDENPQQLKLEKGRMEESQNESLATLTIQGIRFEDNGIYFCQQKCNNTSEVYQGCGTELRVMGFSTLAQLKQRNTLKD
Excerpt: Experimental instruments, materials and reagents: Biacore T200 (GE); biosensor chip CM5 (Cat. #BR-1005-30, GE); amino coupling kit (Cat. #BR-1000-50, GE); human antibody capture kit (Cat. #BR-1008-39, GE); human CD79B-His protein (Cat. #29750-H08H, Sino Biological); HBS-EP+10× buffer (Cat. #BR-1006-69, GE) diluted to 1× (pH 7.4) with D. I. Water.
Experimental procedures: human antibody capture antibodies were covalently coupled to a CM5 biochip according to the method described instructions of the human antibody capture kit for affinity capture of a certain amount of CD79B antibody.
Statistics and analysis of data: data were fitted by BIAevaluation version 4.1, GE software using a (1:1) Langmuir model to obtain affinity values.

[2] = test system: DOHH-2 cells highly expressing human CD79B protein; type: cell-based; conditions: DoHH2 cells, 20 μg/mL ADC, 37° C.
Experimental: A cell endocytosis experiment was performed with DOHH-2 cells (DSMZ, ACC 47) highly expressing human CD79B protein to assess the endocytosis ability of ADCs.
The cells were collected by low temperature centrifugation at 4° C. for 5 min at 1000 rpm during the experiment. The cells were resuspended in 10-15 mL of FACS buffer pre-cooled on ice. The FACS buffer was composed of phosphate buffered saline (PBS), pH 7.4, with 2% fetal bovine serum (FBS). Throughout the experiment, FACS buffer was pre-cooled on ice. The cells were counted and centrifuged, and added to a 96-well plate at 300,000 cells/well. After centrifugation, the supernatant was discarded, and 12.5 μg/mL Fc blocking solution (BD, Cat No.: 564220) was added at 100 μL/well. Blocking was performed at room temperature for 10 min. Then, 20 μg/mL test ADC was added to the corresponding wells, and the plate was incubated at 4° C. for 1 h away from the light. The plate was washed twice with a pre-cooled PBS buffer to remove unbound ADCs. A complete cell culture medium (RPMI 1640 medium with 10% fetal bovine serum) was added, and the plate was incubated at 37° C. with 5% CO2 for 0 h and 4 h. […] The cells were resuspended in an FACS buffer at 200 μL/well and detected using a flow cytometer (BD FACS Calibur).

[3] = test system: human diffuse large B-cell lymphoma WSU-DLCL2-induced nude mouse subcutaneous xenograft tumor; type: in vivo, nude mice (BALB/c-nu); conditions: 3 mg/kg, IV
Experimental: This example was performed to further evaluate and compare the efficacy of ADC drugs on WSU-DLCL2-induced nude mouse subcutaneous xenograft tumor.
Experimental steps: each nude mouse was subcutaneously inoculated with 2×10^7 WSU-DLCL2 cells, and after the tumor volume reached 100-150 mm^3, the animals were grouped according to tumor volume (D0). The mice were administrated by intravenous injection (IV) at an administration volume of 10 mL/kg. The tumor volumes and body weights were measured twice a week and the results were recorded.
Unless otherwise indicated, comparison between tumor volumes of the two groups was made by two-tailed Student's t-test, with P<0.05 defined as statistically significant difference.

WSU-DLCL2 = type: cell-based, human; conditions: WSU-DLCL2 (CD79B low-expression), 72 h, MTT
Experimental: as §1, §2, §3

Raji = type: cell-based; conditions: Raji (CD79B negative-expression), 72 h, MTT
Experimental: as §1, §2, §3

[4] = test system: human follicular lymphoma DOHH-2-induced nude mouse subcutaneous xenograft tumor; type: in vivo, nude mice (BALB/c-nu); conditions: 1 mg/kg, IV
Experimental: This example was performed to further evaluate and compare the efficacy of ADC drugs on DoHH2-induced nude mouse subcutaneous xenograft tumor.
2. Cells and mice: DOHH-2 cells were purchased from DSMZ, Germany.
Nude mice, BALB/c-nu, 4-5 weeks of age, female, were purchased from Shanghai Lingchang Biotechnology Co., Ltd, with production license number of SCXK (Shanghai) 2018-0003, and animal certification number of 20180003010222. Housing environment: SPF grade.
3. […] The mice were administrated by intravenous injection (IV) at an administration volume of 10 mL/kg.
At the end of the experiment, at the experiment endpoint, or when the mean tumor volume in the solvent group reached 1500 mm^3, the animals were sacrificed by CO2 anesthesia and dissected to give the tumors. The tumors were photographed.

Substance: ADC-8: SN8 conjugated with MC-VC-PAB-MMAE; positive drug ADC-8 (namely Polivy) [reference compound]
- IC50 (DoHH2): 0.0806 µg/mL
- efficacy on WSU-DLCL2-induced nude mouse subcutaneous xenograft tumor (conclusion) ([1]; 3 mg/kg or 10 mg/kg, single intravenous injection): significant efficacy
- Mean tumor volume (mm^3 ± SEM) D0 ([1]; 3 mg/kg): 117.6 ± 3.0 mm^3
- Mean tumor volume (mm^3 ± SEM) D21 ([1]; 3 mg/kg): 547.2 ± 38.1 mm^3
- Tumor growth inhibition (%) D21 ([1]; 3 mg/kg): 39%
- T/C (%) D21 ([1]; 3 mg/kg): 61%
- Partial regression ([1]; 3 mg/kg): 0
- Mean tumor volume (mm^3 ± SEM) D0 ([1]; 10 mg/kg): 115.0 ± 3.7 mm^3
- Mean tumor volume (mm^3 ± SEM) D21 ([1]; 10 mg/kg): 167.8 ± 50.3 mm^3
- Tumor growth inhibition (%) D21 ([1]; 10 mg/kg): 93%
- T/C (%) D21 ([1]; 10 mg/kg): 7%
- Partial regression ([1]; 10 mg/kg): 4/6 and 4
- pEC50 (human CD79B): 8.22
- Endocytosis rate (4 h) [2]: 76%
- Mean tumor volume (mm^3) D0 ([3]; D0, baseline at grouping): 105.0 mm^3
- % T/C D21 ([3]; single dose D0, D21): 90%
- % Tumor growth inhibition D21 ([3]; single dose D0, D21): 10%
- Mean tumor volume (mm^3) D21 ([3]; single dose D0, D21): 792.6 mm^3
- Partial regression ([3]; single dose D0, tumors of 6): 0
- IC50 (WSU-DLCL2): 0.1169 µg/mL
- IC50 (Raji): >10 µg/mL
- Mean tumor volume (mm^3) D0 ([4]; D0, baseline at grouping): 117.1 mm^3
- Mean tumor volume (mm^3) D20 ([4]; single dose D0, D20): 862.1 mm^3
- Tumor growth inhibition (%) D20 ([4]; single dose D0, D20): 41%
- T/C (%) D20 ([4]; single dose D0, D20, control IgG1): 59%
- Partial regression ([4]; single dose D0, tumors of 6): 0
